Test results from patent US11806343B2, “Inhibitors of DUX4 induction for regulation of muscle function” (Sonic Master Limited, priority 2017, dated 2023).

How the values were obtained:
Type in all cases: cell-based, human
PRKDC = test: Immunofluorescence of nuclear phosphorylated PRKDC^2609 in primary myocytes; details: 100 nM or 500 nM, 1 hour
Protocol: Patient biopsy-derived primary myoblasts were seeded to a collagen-I coated plate in primary myoblast medium. Medium was changed every other day until cells reached 80% confluence followed by a switch to primary myotube medium. […] PRKDC (phosphorylated PRKDC^2609), active SRC (phosphorylated SRC^416), and nuclei.

Caspase 3/7 = test: Live cell imaging of Caspase 3/7 cleavage dye fluorescence through myotube formation; details: 17MB026 primary myotubes, six concentrations 10 nM-3 μM, imaged four days
Protocol: 17MB026 primary FSHD-affected patient myoblasts (obtained from the University of Rochester FSHD Biorepository) were thawed and cultured as described in Rickard et al., 2015 in primary myoblast medium. Cells (4000 per well) were seeded to a collagen-I coated 96-well plate in 100 μL primary myoblast medium. Medium was changed every other day until cells reached 80% continence followed by a switch to 100 μL per well primary myotube medium containing 1:5000 diluted Caspase 3/7 Green. Apoptosis Assay Reagent (Essen Bioscience). […] Cells were imaged in the phase and green channels every six hours for four days to quantify green intensity×area per image. Triplicate wells of each condition were averaged.

DUX4 target genes = test: Nanostring panel transcript analysis, DUX4 target genes; details: 17MB026 primary myotubes, six-point dose curve 30 nM-3 μM, 3 days
Protocol: 17MB026 primary FSHD-affected patient myoblasts (obtained from the University of Rochester FSHD Biorepository) were thawed and cultured as described in Rickard et al., 2015 in primary myoblast medium. Cells (4000 per well) were seeded to a collagen-I coated 96-well plate in 100 μL primary myoblast medium. Medium was changed every other day until cells reached 80% confluence followed by a switch to 100 μL per well primary myotube medium. […] Cells were lysed after 3 days of myotube formation using 10 μL of iScript Buffer (Biorad) per well. The resulting lysates were frozen at −30° C. After thaw, 5 μL of each lysate was combined with a custom-designed Nanostring transcript probe and capture codeset. Probes were hybridized to lysates and run cartridge was loaded and run per standard protocol. Normalization and background subtraction were performed using the nSolver 3.0 software using standard conditions DUX4 target gene and myotube marker gene expression values were normalized to a standard set of housekeeping genes. Duplicate wells of each condition were averaged.

[1] = system: 4qA and D4Z4 regions of chromosome 4; test: Bisulfite sequencing of DNA methylation at 4qA and D4Z4 regions in FSHD-affected myotubes; details: Genea049 FSHD-affected myotubes, 10 nM, 100 nM or 1 μM, myotube day 3
Protocol: Healthy (Genea015) or FSHD-affected (Genea049) MSC-derived myoblasts were cultured in Myoblast Media (Genea Biocells) while performing media changes every other day. When cells reached confluence, the medium was switched to Myottibe Medium (Genea Biocells) without any further media changes. On myotube day 3, cells were trypsinized and cell pellets were prepared for bisulfite sequencing analysis. Genomic DNA was isolated from cell pellets using QIAamp DNA Blood Mini Kit (Qiagen) and bisultite converted using the EpiTect Kit (Qiagen). The 4qA and D4Z4 regions were amplified and cloned into the pCR2.1 TOPO vector. The 4qA or D4Z4 containing plasmids were transformed into TOP10 chemically competent E. coli and selected for kanamycin resistance. Sequencing of kanamycin resistant colonies was completed by Sequegen and methylation analysis was performed using Bisulfite Sequencing DNA Methylation Analysis (BISMA) online software.
FSHD-affected. (Genea049) embryonic stem cell-derived myoblasts were cultured in Myoblast Media (Genea Biocells) while performing media changes every other day. When cells reached confluence, the medium was switched to Myotube Medium (Genea. Biocells) without any further media changes. […] On myotube day 3, myotubes were trypsinized and cell pellets were prepared for bisulfite sequencing analysis. Refer to the FIG. 1 legend for additional details.

Genea049 FSHD hESC-SkM = test: FSHD hESC-SkM immunocytochemistry, Myosin Heavy Chain and nuclei (myogenic inhibition/toxicity)
Protocol: FIG. 6 provides an example of a screening and culturing workflow for hESC-SkM assays. At Day 0, hESC-derived myoblasts are thawed into a 96-well plate in myoblast medium (Genea BioCells). On Day 2, the medium is replaced with new myoblast medium containing 1.15 μM. Decitabine. […] On Day 7, the myotubes are analyzed. For example, the myotubes may be analyzed for MHC expression or DUX4 expression.
(§1) Genea049 FSHD-affected human Embryonic Stem Cells (hESCs) were differentiated using Genea's myogenic differentiation protocol (Caron et 2015) to the myoblast stage and cryopreserved. Frozen myoblasts were resuscitated and 4500 cells were plated into each well of a 96-well collagen I coated tissue culture plate in myoblast medium. After two days of cell growth medium was changed to 100 μL per well myoblast medium containing 1.15 μM Decitabine. […] Cells were allowed to differentiate to myotubes for four additional days then were fixed and analyzed for quantification of DUX4 expression, Myosin Heavy Chain expression, and nuclei number. Triplicate wells of each condition were averaged.
as §1, with “et al.,” for “et”, “number by high-content imaging.” for “number.”

CNC(=O)c1cc(Oc2ccc(NC(=O)Nc3cc(C(C)(C)C)nn3-c3ccc4ncccc4c3)c(F)c2)ccn1 [GBC0905, Rebastinib]
intensity distribution of nuclear phosphorylated PRKDC^2609 (kinase activity) (PRKDC): significant shift towards lower intensity levels | Caspase 3/7 activation (Caspase 3/7): dose-dependent decrease in Caspase 3/7 activation | expression of DUX4-activated genes (DUX4 target genes): dose-dependent decrease of 11 DUX4-activated genes | DNA methylation levels at 4qA or D4Z4 regions [1]: No statistically significant effect | Myosin Heavy Chain expression and nuclei count, dose curve (Genea049 FSHD hESC-SkM; 10 nM-3 μM, four days): not seen in cells treated with GBC0905 (Rebastinib) at concentrations lower than 3 μM | Myosin Heavy Chain expression and nuclei count (Genea049 FSHD hESC-SkM; 100 nM, four days of culture): these effects are not seen
